Measured values as given in US20140227191A1, “L-GLUTAMIC ACID AND L-GLUTAMINE DERIVATIVE (III), USE THEREOF AND METHOD FOR OBTAINING THEM” (BAYER SCHERING PHARMA AKTIENGESELLSCHAFT, priority 2008, published 2014).
Structures can show the parent of a compound that is named as a salt.

System: A549 cells (human Non Small Cell Lung Cancer)
Assay: cytotoxicity assay with A549 cells using standard Alamar Blue Assay
Details: for cell vitality: A549 cells, 48 h incubation, Alamar Blue, versus control cells, L-Glutamate at 2 mM
Method: A Dulbecco's modified Eagle's Medium (Sigma D0422), supplemented with Glutamine and 10% foetal calf serum (FCS) were used as incubation buffer. The cells were incubated for 48 h with test compounds and investigated according to manufacturer's protocol.
Afterwards, cell vitality was measured with the Alamar Blue assay kit as described above.

Compound	cell vitality	EC50 (Homo sapiens, A549, read-out: EC50 (cell vitality)) [µM]
N[C@@H](C[C@H](CCCF)C(=O)O)C(=O)O [Example 1]	strong decrease of the cell vitality	~38
N[C@@H](C[C@H](Cc1cc(C(F)(F)F)ccc1F)C(=O)O)C(=O)O [Example 5, Neutral sodium salt of (2S,4S)-2-Amino-4-(2-fluoro-5-trifluoromethyl-benzyl)-pentane dioic acid]	strong decrease of the cell vitality	
N[C@@H](CCC(=O)O)C(=O)O [L-Glutamate, reference compound]	no differences in cell vitality	
